This note sets out measurements from PMC3285437 (Cell, 2012).

The term Kd denotes the constant that tells how readily two partners part at equilibrium. Low values mean higher affinity, high ones lower affinity.

The target in assay [1] is Kes1 (Kes1/Osh4) (Saccharomyces cerevisiae, UniProt P35844, K242E/K243E/R236E). Description: [3H]-cholesterol saturation binding, sterol:detergent micelle assay.
For assay [2], the target named is Kes1 (Kes1/Osh4) (Saccharomyces cerevisiae, UniProt P35844). The description is as above.

For `CC(C)CCC[C@@H](C)[C@H]1CC[C@H]2[C@@H]3CC=C4C[C@@H](O)CC[C@]4(C)[C@H]3CC[C@]12C` [[^3H]-Cholesterol], the Kd on Kes1 (Kes1/Osh4) [1] and at Kes1 (Kes1/Osh4) [2] was 500 to 800 nM each time.
